As a reminder, the EC50 is the concentration needed to bring the measured effect to its halfway point. A low value points to greater potency. As usually defined, the Kd is the concentration at which binding is half-saturated.

The values that follow come from patent publication US10947252B2, “Inhibitors of KEAP1-Nrf2 protein-protein interaction” (Janssen Pharmaceutica NV, priority 2018, dated 2021).

SMILES strings stand for the structures.

Assay [1] concerns Glo-Response ARE-luc2P HEK293 cell line. Description: ARE luciferase reporter cell-based assay.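 Further: luciferase signal tracks Nrf2 activation of the ARE once compounds disrupt KEAP1-Nrf2 binding, read with One-Glo reagent, DMSO serving as low control.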 The following applies: Homo sapiens, HEK293, 24 h, average of results obtained. A general note: Reporter assays use an easily measured gene product as a stand-in for the process of interest.
For assay [2], the target named is Kelch domain of human KEAP1 (321-624 aa) (Homo sapiens (Human), UniProt Q14145). Description: KEAP1 KELCH ThermoFluor binding assay.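 Further: Ligand-induced melting temperature shift of E. coli-expressed KEAP1 Kelch protein, Kd estimated from concentration-response curves of ΔTm.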 Conditions: KEAP Kelch […], 1,8-ANS, pH 7.0, average of results obtained, read-out: Tf Kd.
Chain of Kelch domain of human KEAP1 (321-624 aa) (Q14145 321-624): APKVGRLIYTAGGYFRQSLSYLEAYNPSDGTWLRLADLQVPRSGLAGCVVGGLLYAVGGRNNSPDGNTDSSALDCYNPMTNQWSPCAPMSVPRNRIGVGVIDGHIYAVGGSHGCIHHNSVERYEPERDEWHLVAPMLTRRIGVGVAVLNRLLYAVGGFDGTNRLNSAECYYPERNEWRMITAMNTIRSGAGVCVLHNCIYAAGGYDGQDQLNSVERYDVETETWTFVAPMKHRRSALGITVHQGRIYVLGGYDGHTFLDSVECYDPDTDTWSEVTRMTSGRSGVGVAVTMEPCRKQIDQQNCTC

As for `Cc1ccc([C@H](CC(=O)O)c2ccn3c(C(F)(F)F)nnc3c2C)cc1CN1CC2(CC2)Oc2ncc(C(N)=O)cc2S1(=O)=O` (single isomer, unassigned) [Example 201, (*S)-3-(3-((8′-Carbamoyl-1′,1′-dioxidospiro[cyclopropane-1,4′-pyrido[2,3-b][1,4,5]oxathiazepin]-2′(3′H)-yl)methyl)-4-methylphenyl)-3-(8-methyl-3-(trifluoromethyl)-[1,2,4]triazolo[4,3-a]pyridin-7-yl)propanoic Acid], the EC50 in assay [1] is greater than 20000 nM. In addition, the dissociation constant (Kd) in assay [2] is 300 nM.
Taken in the same sequence, the figures for `Cc1ccc([C@H](CC(=O)O)c2ccc3c(nnn3CC3CC3)c2C)cc1CN1CC2(COC2)Oc2ncccc2S1(=O)=O` (single isomer, unassigned) [Example 69, (*S)-3-(1-(Cyclopropylmethyl)-4-methyl-1H-benzo[d][1,2,3]triazol-5-yl)-3-(3-((1′,1′-dioxidospiro[oxetane-3,4′-pyrido[2,3-b][1,4,5]oxathiazepin-2′(3′H)-yl)methyl)-4-methylphenyl)propanoic Acid] were 28.5 nM and 0.16 nM.
The corresponding values for `Cc1ccc([C@@H](CC(=O)O)c2ccn3c(C(F)(F)F)nnc3c2C)cc1CN1CC2(CC2)N(C)c2ncccc2S1(=O)=O` (single isomer, unassigned) [Example 185, (*R)-3-(4-Methyl-3-((5′-methyl-1′,1′-dioxido-5′H-spiro[cyclopropane-1,4′-pyrido[2,3-f][1,2,5]thiadiazepin]-2′(3′H)-yl)methyl)phenyl)-3-(8-methyl-3-(trifluoromethyl)-[1,2,4]triazolo[4,3-a]pyridin-7-yl)propanoic Acid] are 2720 nM and 12 nM.
The corresponding values for `CC[C@@H]1CN(Cc2cc([C@H](CC(=O)O)c3cc(OC(F)F)c4c(c3)nnn4C)ccc2C)S(=O)(=O)c2cccnc2O1` (single isomer, unassigned) [Example 250, (*S)-3-(7-(Difluoromethoxy)-1-methyl-1H-benzo[d][1,2,3]triazol-5-yl)-3-(3-(((R)-4-ethyl-1,1-dioxido-3,4-dihydro-2H-pyrido[2,3-b][1,4,5]oxathiazepin-2-yl)methyl)-4-methylphenyl)propanoic Acid] are 32.8 nM and less than 1 nM.
In assay [1], `Cc1ncc([C@@H](CC(=O)O)c2ccn3c(C(F)(F)F)nnc3c2C)cc1CN1CC2(CCOCC2)Oc2ncccc2S1(=O)=O` (single isomer, unassigned) [Example 562, (*S)-3-(5-((1′,1′-Dioxido-2,3,5,6-tetrahydrospiro[pyran-4,4′-pyrido[2,3-b][1,4,5]oxathiazepin]-2′(3′H)-yl)methyl)-6-methylpyridin-3-yl)-3-(8-methyl-3-(trifluoromethyl)-[1,2,4]triazolo[4,3-a]pyridin-7-yl)propanoic Acid] had a concentration giving a half-maximal response (EC50) of 2490 nM. Further, the Kd in assay [2] amounted to 14.8 nM.
Taken in the same sequence, the figures for `Cc1ccc(C(CC(=O)O)c2ccc3c(nnn3C3CC3)c2C)cc1CN1C[C@@H]2CCCCN2c2ncccc2S1(=O)=O` (mixture of isomers) [Example 397, (R/S)-3-(1-Cyclopropyl-4-methyl-1H-benzo[d][1,2,3]triazol-5-yl)-3-(3-(((*S)-5,5-dioxido-7,7a,8,9,10,11-hexahydro-6H-dipyrido[2,1-d:2′,3′-f][1,2,5]thiadiazepin-6-yl)methyl)-4-methylphenyl)propanoic Acid] were 11 nM and less than 1 nM.
Taken in the same sequence, the figures for `CCn1nnc2c(C)c(C(CC(=O)O)c3ccc(C)c(CN4CC5(COC5)Oc5ncccc5S4(=O)=O)n3)ccc21` (racemic) [Example 240, (R/S)-3-(6-((1′,1′-Dioxidospiro[oxetane-3,4′-pyrido[2,3-b][1,4,5]oxathiazepin]-2′(3′H)-yl)methyl)-5-methylpyridin-2-yl)-3-(1-ethyl-4-methyl-1H-benzo[d][1,2,3]triazol-5-yl)propanoic Acid] were 85 nM and less than 1 nM.
The corresponding values for `Cc1cnc2c(c1)S(=O)(=O)N(Cc1cc(C(c3ccc4c(nnn4C4CC4)c3C)C(C)(C)C(=O)O)cnc1C)CC1(CCOCC1)O2` (racemic) [Example 227, (R/S)-3-(1-Cyclopropyl-4-methyl-1H-benzo[d][1,2,3]triazol-5-yl)-2,2-dimethyl-3-(6-methyl-5-((8′-methyl-1′,1′-dioxido-2,3,5,6-tetrahydrospiro[pyran-4,4′-pyrido[2,3-b][1,4,5]oxathiazepin]-2′(3′H)-yl)methyl)pyridin-3-yl)propanoic Acid] are 22 nM and less than 1 nM.
Regarding `Cc1ncc([C@H](c2ccn3c(C(F)(F)F)nnc3c2C)C(C)(C)C(=O)O)cc1CN1CC2(CCOCC2)Oc2ncccc2S1(=O)=O` (single isomer, unassigned) [Example 570, (*S)-3-(5-((1′,1′-Dioxido-2,3,5,6-tetrahydrospiro[pyran-4,4′-pyrido[2,3-b][1,4,5]oxathiazepin]-2′(3′H)-yl)methyl)-6-methylpyridin-3-yl)-2,2-dimethyl-3-(8-methyl-3-(trifluoromethyl)-[1,2,4]triazolo[4,3-a]pyridin-7-yl)propanoic Acid], in assay [1], the EC50 turned out to be 1120 nM. The dissociation constant Kd in assay [2] is less than 1 nM.
Taken in the same sequence, the figures for `Cc1ccc([C@@H](CC(=O)O)c2ccn3c(C(F)F)nnc3c2C)cc1CN1CC2(CC2)Oc2ncccc2S1(=O)=O` (single isomer, unassigned) [Example 474, (*R)-3-(3-(Difluoromethyl)-8-methyl-[1,2,4]triazolo[4,3-a]pyridin-7-yl)-3-(3-((1′,1′-dioxidospiro[cyclopropane-1,4′-pyrido[2,3-b][1,4,5]oxathiazepin]-2′(3′H)-yl)methyl)-4-methylphenyl)propanoic Acid] were 1580 nM and less than 1 nM.
Taken in the same sequence, the figures for `Cc1ccc(C(CC(=O)O)c2ccn3c(C4CC4)nnc3c2C)cc1CN1C[C@H]2CCCN2c2ncccc2S1(=O)=O` (mixture of isomers) [Example 167, (R/S)-3-(3-Cyclopropyl-8-methyl-[1,2,4]triazolo[4,3-a]pyridin-7-yl)-3-(3-(((R)-5,5-dioxido-7a,8,9,10-tetrahydropyrido[2,3-f]pyrrolo[2,1-d][1,2,5]thiadiazepin-6(7H)-yl)methyl)-4-methylphenyl)propanoic Acid] were 1140 nM and less than 1 nM.
The corresponding values for `CCn1nnc2c(C)c([C@H](c3cc(CN4CC5(CNC5)Oc5ncc(C)cc5S4(=O)=O)c(C)cn3)C(C)(C)C(=O)O)ccc21` (single isomer, unassigned) [Example 595, (*S)-3-(1-Ethyl-4-methyl-1H-benzo[d][1,2,3]triazol-5-yl)-2,2-dimethyl-3-(5-methyl-4-((8′-methyl-1′,1′-dioxidospiro[azetidine-3,4′-pyrido[2,3-b][1,4,5]oxathiazepin]-2′(3′H)-yl)methyl)pyridin-2-yl)propanoic Acid] are 139 nM and 4.28 nM.
For `Cc1ccc([C@H](c2ccn3c(C(F)F)nnc3c2C)C(C)(C)C(=O)O)cc1CN1CC2(CCOCC2)Oc2ncccc2S1(=O)=O` (single isomer, unassigned) [Example 54, (*R)-3-(3-(Difluoromethyl)-8-methyl-[1,2,4]triazolo[4,3-a]pyridin-7-yl)-3-(3-((1′,1′-dioxido-2,3,5,6-tetrahydrospiro[pyran-4,4′-pyrido[2,3-b][1,4,5]oxathiazepin]-2′(3′H)-yl)methyl)-4-methylphenyl)-2,2-dimethylpropanoic Acid], a half-maximal effect in assay [1] (EC50) was put at 956 nM. For the same compound, in assay [2], the Kd was 1790 nM.
